Data set [1] has as its system Glycoprotein Nonmetastatic Melanoma Protein B (GPNMB). As to the kind of experiment: SOMAscan aptamer-based proteomics of plasma from patients dosed with apilimod (NCT02594384). Type of data set: in vivo, human. The conditions noted are these: pre-dose vs day 15 after 14 days of dosing, FDR<0.05. From the text: A SOMAscan™ platform was used to identify analytes that were changed in the plasma of patients upon apilimod dosing. SOMAscan™ is an aptamer-based proteomics assay from SomaLogic capable of measuring 1,305 human protein analytes in serum or plasma with high sensitivity and specificity. Plasma from patients enrolled in the clinical trial designated NCT02594384 was collected pre-dose (before the first administration of apilimod) and after 14 days of dosing with apilimod, on day 15. Using differential protein analysis with a paired experimental design for linear models of microarray data using the “Limma R” software package described by Ritchie et al. in Nucleic Acids Research, 43(7), pp. e47 (2015).

Data set [2] is described as follows: Body weight (percent baseline) in TDP-43 (rNLS8) mouse model of ALS. Type of data set: in vivo. The following applies: Group B (60 mg/kg p.o. BID) vs vehicle Group A. On the procedure:
(§1) For the evaluation, all mice received either apilimod dimesylate (60 mg/kg)) or vehicle two times daily for 24 days, starting at […] of age, 3 days prior to disease initiation. Both groups had routine clinical assessments 3 times per week. Twenty-four (24) total mice were assigned to one of two groups, as outlined in Table 1. […]
(§2) Animals were weighed at the beginning of the experiment, and then, for dosing, daily for the duration of the study. Animals were also monitored daily, and clinical assessments were performed three times per week (Mondays, Wednesday, and Fridays) from disease initiation to the end of the study. Each clinical assessment day, animals were assessed for signs of motor dysfunction, including signs of tremor, hindlimb clasping, hindlimb paralysis, grill agility, and overall well-being. Each of these signs were scored on a scale of 0-3: normal/no dysfunction (0), mild (1), moderate (2), or severe (3), as summarized in Table 2. […]
(§3) All summary statistics are presented as mean and standard deviation. […] The data were first assessed for normality with a normal probability plot, followed by assessment of homogeneity of variance, if appropriate. […]

Data set [3] has as its system TDP-43 (rNLS8) mouse model of ALS. As to the kind of experiment: Clinical assessment of motor dysfunction in TDP-43 (rNLS8) mouse model of ALS. Type of data set: in vivo. The conditions noted are these: body weight and clinical scores taken together. How it is done: as §1, §2, §3
Progression of clinical scores (also herein “severity score”) throughout the study, following removal of Full DOX was evaluated. […]

Data set [4] is described as follows: Observation of adverse effects of treatment in rNLS8 mice. The conditions noted are these: 60 mg/kg p.o. BID for 24 days. It counts as in vivo, mouse. How it is done:
For the evaluation, all mice received either apilimod dimesylate (60 mg/kg)) or vehicle two times daily for 24 days, starting at […] of age, 3 days prior to disease initiation. Both groups had routine clinical assessments 3 times per week. Twenty-four (24) total mice were assigned to one of two groups, as outlined in Table 1.
Animals were weighed at the beginning of the experiment, and then, for dosing, daily for the duration of the study. Animals were also monitored daily, and clinical assessments were performed three times per week (Mondays, Wednesday, and Fridays) from disease initiation to the end of the study. Each clinical assessment day, animals were assessed for signs of motor dysfunction, including signs of tremor, hindlimb clasping, hindlimb paralysis, grill agility, and overall well-being. Each of these signs were scored on a scale of 0-3: normal/no dysfunction (0), mild (1), moderate (2), or severe (3), as summarized in Table 2.
Apilimod dimesylate was received at ambient temperature in a 50 mL tube and protected from light. The treatments were administered p.o. twice per day (BID) for a period of 24 days Each daily dose was performed within the same ˜2-hour time frame, with approximately 6 hours between doses.

Turning to `Cc1cccc(/C=N/Nc2cc(N3CCOCC3)nc(OCCc3ccccn3)n2)c1` [apilimod], in data set [1], the “average fold change of plasma (shed) GPNMB” value was determined as 4 fold. Moreover, the “percent baseline body weight vs vehicle at every clinical assessment visit” value in data set [2] is “tendency for higher percent baseline body weight”. Further, the “functional deficits in TDP-43 ALS animal model” value in data set [3] was “ameliorates functional deficits”. The “adverse effects of treatment” value in data set [4] is on record as “No adverse effects”.

For the origin of these results see patent publication US12589097B2, “Apilimod compositions and methods of use” (ORPHAI THERAPEUTICS INC., priority 2023, dated 2026).
